Values after ≈ are worked out from the molar mass of the structure shown. Like-named read-outs stand apart in the source and are kept apart here.
Key:
[1] = system: β-galactosidase from A. oryzae; assay: Cleavage of glucose from resveratrol glucosides by β-galactosidase; format: biochemical; conditions: 6 - β-galactosidase A. oryzae
[2] = system: Depol™ cellulase (Biocatalysts); assay: Cleavage of glucose from resveratrol glucosides by Depol cellulase; format: biochemical; conditions: 2 - Depol IFF (cellulase)
[3] = system: recombinant β-glucosidase (GO16L, IFF); assay: Cleavage of glucose from resveratrol glucosides by recombinant β-glucosidase; format: biochemical; conditions: 1 - β-glucosidase (IFF)
[4] = system: Glusulase; assay: Cleavage of glucose from resveratrol glucosides by Glusulase; format: biochemical; conditions: 4 - Glusulase
[5] = system: β-glucuronidase; assay: Cleavage of glucose from resveratrol glucosides by β-glucuronidase; format: biochemical; conditions: 7 - β-glucuronidase
[6] = system: Cellobiase from A. niger; format: biochemical
[7] = mouse, in vivo
[8] = biological target: T1, EXG1 (Saccharomyces cerevisiae, UniProt P23776); assay: Cleavage of glucose from resveratrol glucosides by broth enriched with EXG1; format: biochemical, S. cerevisiae; conditions: 8 - EXG1 broth
T1 sequence (P23776 41-448): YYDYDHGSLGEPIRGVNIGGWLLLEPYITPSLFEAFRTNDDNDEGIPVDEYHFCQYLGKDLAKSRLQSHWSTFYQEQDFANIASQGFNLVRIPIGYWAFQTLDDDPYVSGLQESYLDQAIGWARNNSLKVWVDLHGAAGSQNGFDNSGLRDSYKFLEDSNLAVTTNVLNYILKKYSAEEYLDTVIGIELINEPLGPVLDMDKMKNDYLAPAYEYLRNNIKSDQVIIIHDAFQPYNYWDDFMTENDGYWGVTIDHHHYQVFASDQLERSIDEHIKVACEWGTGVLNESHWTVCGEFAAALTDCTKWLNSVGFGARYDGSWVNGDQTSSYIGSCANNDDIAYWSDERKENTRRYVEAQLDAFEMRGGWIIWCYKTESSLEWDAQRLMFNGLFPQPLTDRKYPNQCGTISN

[9] = system: Cellulase T. reesei; format: biochemical
[10] = Separate experiment: plasma levels after single oral or IV administration, LC-MS; conditions: for Plasma level of the administered compound after oral administration / Plasma level of the administered compound after IV administration: single dose 10 mL/kg, FIG. 21
[11] = Solubility in water of purified compounds (H2O saturation, HPLC quantification); conditions: for solubility at 1 min: water, thermodynamic from solid
[12] = biological target: EXG1 (Saccharomyces cerevisiae, UniProt P23776); assay: Cleavage of piceid by S. cerevisiae cells with or without EXG1; conditions: S. cerevisiae cells with functional EXG1, 125 mg/L piceid, overnight
[13] = system: EXG1; assay: as above; conditions: second S. cerevisiae strain (lacking EXG1), 125 mg/L piceid, overnight
[14] = in water; cited from earlier work
[15] = Pharmacokinetic profiling: plasma levels after single IV or oral administration; format: in vivo, CD1 male mice
[16] = male, CD1, mouse, plasma, intravenous, 10 mg/kg

Molecule	% cleavage in conditions tested [1]	% cleavage in conditions tested [2]	% cleavage in conditions tested [3]	% cleavage in conditions tested [4]	% cleavage in conditions tested [5]	% cleavage in conditions tested [6]	% cleavage in conditions tested [8]	% cleavage in conditions tested [9]	Plasma level of the administered compound after oral administration [10]	solubility at 1 min [11] [µg/mL]	Solubility mg/L (Literatrure) [14] [mg/L]	Plasma level of the administered compound after IV administration [10]	other results
cis/trans-resveratrol-3,5-di-O-β-glucoside [3,5-resveratrol diglucoside]	✓ (✓ = >95%)	✓ (✓ = >95%)	✓ (✓ = >95%)	✓ (✓ = >95%)	✓ (✓ = >95%)	✓ (key: ✓ = >95%; ♦ = 50-95%; • = 5-49%; X = 0%)	• (• = 5-49%)	✓ (key: ✓ = >95%; ♦ = 50-95%; • = 5-49%; X = 0%)	–	–	–	–	Time of highest plasma level of administered compound, IV ([7]; iv): 1 h; Time within which plasma level declined, IV ([7]; iv): ≤ 4 h; Plasma level of the administered compound after oral administration ([7]; po): high levels; Time within which plasma level declined, oral ([7]; po): ≤ 3 h
OC[C@H]1O[C@@H](Oc2ccc(/C=C/c3cc(O)cc(O[C@@H]4O[C@H](CO)[C@@H](O)[C@H](O)[C@H]4O)c3)cc2)[C@H](O)[C@@H](O)[C@@H]1O (relative stereo) [3,4′-resveratrol diglucoside, trans-resveratrol-3,4′-di-O-β-glucoside]	✓ (✓ = >95%)	✓ (✓ = >95%)	✓ (✓ = >95%)	✓ (✓ = >95%)	✓ (✓ = >95%)	✓ (key: ✓ = >95%; ♦ = 50-95%; • = 5-49%; X = 0%)	♦ (♦ = 50-95%)	✓ (key: ✓ = >95%; ♦ = 50-95%; • = 5-49%; X = 0%)	–	–	–	–	Plasma level relative to 3,5-resveratrol diglucoside, oral ([7]; po): approximately 3 fold; Time within which compound was cleared from plasma, oral ([7]; po): ≤ 1 h
OC[C@H]1O[C@@H](Oc2cc(O)cc(C=Cc3ccc(O)cc3)c2)[C@H](O)[C@@H](O)[C@@H]1O [Piceid, resveratrol 3-O-β-D-glucopyranoside]	✓ (✓ = >95%)	✓ (✓ = >95%)	✓ (✓ = >95%)	✓ (✓ = >95%)	✓ (✓ = >95%)	✓ (key: ✓ = >95%; ♦ = 50-95%; • = 5-49%; X = 0%)	♦ (♦ = 50-95%)	✓ (key: ✓ = >95%; ♦ = 50-95%; • = 5-49%; X = 0%)	detected at a low level	200 to 300 (≈ 512 to 768 µM)	69 (≈ 177 µM)	–	Piceid detected in plasma after IV administration ([10]; piceid 17.1 mg/kg IV): approximately 900 ng/mL; Piceid cleaved, yielding resveratrol [12]: approximately 25%; Piceid cleaved [13]: less than 0.5%; Detection of administered compound in plasma after IV administration ([15]; 10 mg/kg IV): detectable; Detection of administered compound in plasma after oral administration ([15]; 10 mg/kg PO): detectable; Systemic conversion to trans-resveratrol ([15]; after IV and oral administration): converted to trans-resveratrol systemically; concentration at 0.25 h ([15]; male, CD1, mouse, plasma, piceid 10 mg/kg IV, 0.25 h, read-out: Piceid (Detection of piceid) in plasma, IV): 2830 ng/mL; concentration at 0.5 h ([15]; male, CD1, mouse, plasma, piceid 10 mg/kg IV, 0.5 h, read-out: Piceid (Detection of piceid) in plasma, IV): 320 ng/mL; concentration at 1 h ([15]; male, CD1, mouse, plasma, piceid 10 mg/kg IV, read-out: Piceid (Detection of piceid) in plasma, IV): 50 ng/mL; concentration at 0.5 h ([15]; male, CD1, mouse, plasma, piceid 10 mg/kg PO, 0.5 h, read-out: Piceid (Detection of piceid) in plasma, PO): 5 ng/mL; concentration at 1 h ([15]; male, CD1, mouse, plasma, piceid 10 mg/kg PO, read-out: Piceid (Detection of piceid) in plasma, PO): 8 ng/mL; concentration at 2 h ([15]; male, CD1, mouse, plasma, piceid 10 mg/kg PO, 2 h, read-out: Piceid (Detection of piceid) in plasma, PO): 4 ng/mL
Oc1ccc(C=Cc2cc(O)cc(O)c2)cc1 [Resveratrol, 3,5,4′-trihydroxy-stilbene]	–	–	–	–	–	–	–	–	cleared quickly	30 to 40 (≈ 131 to 175 µM)	15 to 30	an increase in resveratrol plasma levels appeared 4 h post-administration	concentration at 0.25 h [15, 16]: 40 ng/mL; concentration at 0.5 h [15, 16]: 4 ng/mL
OC[C@H]1O[C@@H](Oc2ccc(/C=C/c3cc(O)cc(O)c3)cc2)[C@H](O)[C@@H](O)[C@@H]1O (relative stereo) [Resveratroloside, trans-resveratrol-4′-O-β-glucoside]	✓ (✓ = >95%)	✓ (✓ = >95%)	✓ (✓ = >95%)	✓ (✓ = >95%)	✓ (✓ = >95%)	–	• (• = 5-49%)	–	low	–	–	low	Plasma levels of resveratrol after administration of the glucoside ([10]; oral and IV administration): a sharp increase in resveratrol; Solubility mg/L (in house) ([11]; in nanopure H2O, HPLC): 1,300 mg/L
